Laboratory results: ChEMBL document CHEMBL1201862, “PubChem BioAssay data set” (2004)
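Each compound was tested at five concentrations against cells in 96-well plates for 48 hours. At the GI50, growth is halved.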 Active and inactive are the calls of the source. No stated cut-off is given here; in the data, active = GI50 up to about 1.1 µM and inactive = higher.

What was measured:
Experiment in all cases: DTP human tumour cell line panel, 48 h
RXF 631 = tested on: RXF 631
DLD-1 = tested on: DLD-1
SNB-78 = tested on: SNB-78
XF498 = tested on: XF498
M19-MEL = tested on: M19-MEL
HOP-18 = tested on: HOP-18
LXFL 529 = tested on: LXFL 529
KM-20L2 = tested on: KM-20L2
DMS-273 = tested on: DMS-273

Row | SMILES | GI50 (RXF 631) | GI50 (DLD-1) | GI50 (SNB-78) | GI50 (XF498) | GI50 (M19-MEL) | GI50 (HOP-18) | GI50 (LXFL 529) | GI50 (KM-20L2) | GI50 (DMS-273)
1 | Oc1ccc2c(c1)OCC1(O)Cc3cc(O)c(O)cc3C21 (stereo unspecified) | 41 µM (inactive) | 17.3 µM (inactive) | 14.7 µM (inactive) | 15.2 µM (inactive) | 29.1 µM (inactive) | 18.3 µM (inactive) | 18.5 µM (inactive) | 38.3 µM (inactive) | 35.8 µM (inactive)
2 | CCCC(=O)Oc1ccc(/C=N/NC(N)=S)nc1 |  | > 100 µM (inactive) | > 100 µM (inactive) |  | > 100 µM (inactive) | > 100 µM (inactive) | > 100 µM (inactive) | > 100 µM (inactive) | > 100 µM (inactive)
3 | N#Cc1ccc(Cc2ccccn2)cc1Cl | > 100 µM (inactive) | > 100 µM (inactive) | > 100 µM (inactive) |  | > 100 µM (inactive) | > 100 µM (inactive) | > 100 µM (inactive) |  | > 100 µM (inactive)
4 | Cc1cc([N+](=O)[O-])c(C)c2c1[nH]c1ccc(O)cc12 |  | 16.8 µM (inactive) | > 100 µM (inactive) | > 100 µM (inactive) | > 100 µM (inactive) | 55.1 µM (inactive) |  |  | > 100 µM (inactive)
5 | BrCc1ccc2ccc3ccc(CBr)nc3c2n1 |  |  | 2.13 µM (inactive) |  | 3.86 µM (inactive) | 1.83 µM (inactive) | 1.75 µM (inactive) | 3.28 µM (inactive) | 1.77 µM (inactive)
6 | CCOC(=O)C12CCCC1(O)N(NC(N)=O)C(C)=C2C(=O)OC (stereo unspecified) | > 100 µM (inactive) | > 100 µM (inactive) | > 100 µM (inactive) | > 100 µM (inactive) | > 100 µM (inactive) | > 100 µM (inactive) | > 100 µM (inactive) | > 100 µM (inactive) | > 100 µM (inactive)
7 | CCOC(=O)NC/C=C/COC1CCCCO1 (stereo unspecified) |  | > 100 µM (inactive) | > 100 µM (inactive) |  | > 100 µM (inactive) | > 100 µM (inactive) | > 100 µM (inactive) | > 100 µM (inactive) | > 100 µM (inactive)
8 | COc1ccc(C(=O)C(c2ccc(OCc3ccccc3)cc2)c2ccc(OCc3ccccc3)cc2)cc1 | 2.67 µM (inactive) | > 100 µM (inactive) | > 100 µM (inactive) | > 100 µM (inactive) | > 100 µM (inactive) |  |  | > 100 µM (inactive) | > 100 µM (inactive)
9 | COC(=O)c1ccc(C=C(C#N)C#N)cc1 | 28.2 µM (inactive) | 22.2 µM (inactive) |  |  | 25.2 µM (inactive) | 36.1 µM (inactive) | 18.3 µM (inactive) | 30.6 µM (inactive) | 17.4 µM (inactive)
10 | O=C(CC1(O)C(=O)Nc2c(Cl)ccc(Cl)c21)c1ccco1 (stereo unspecified) | 26.4 µM (inactive) | 39.7 µM (inactive) | 51.8 µM (inactive) | 11.9 µM (inactive) | 2.31 µM (inactive) | > 100 µM (inactive) | 14 µM (inactive) | 37.8 µM (inactive) | 34.6 µM (inactive)
11 | Nc1ccc2nc(Nc3ccc(F)cc3)cnc2c1 |  | > 100 µM (inactive) |  | > 100 µM (inactive) | > 100 µM (inactive) |  |  |  | > 100 µM (inactive)
12 | O=C1[C@@H]2C3c4ccccc4C([C@@H]2C(=O)N1c1ccccc1)S3(=O)=O | 26.8 µM (inactive) | > 100 µM (inactive) | > 100 µM (inactive) | > 100 µM (inactive) | > 100 µM (inactive) | > 100 µM (inactive) | > 100 µM (inactive) | > 100 µM (inactive) | > 100 µM (inactive)
13 | COC1=CC(=O)C2(C=C1OC)OC[C@H]1Oc3c(ccc4c3C=CC(C)(C)O4)C(=O)[C@H]12 (stereo partly specified) | > 100 µM (inactive) | 43.6 µM (inactive) | 37.8 µM (inactive) | 40.9 µM (inactive) | 40.8 µM (inactive) |  | 33.3 µM (inactive) | 46.1 µM (inactive) | 35.1 µM (inactive)
14 | COc1ccc(C(=C(C#N)C#N)c2ccc(OC)cc2)cc1 |  |  | > 100 µM (inactive) |  |  |  | > 100 µM (inactive) | > 100 µM (inactive) | > 100 µM (inactive)
15 | C[N+](C)(C)CC(=O)NC(=O)N/N=C\C(CC#N)CN(Cc1ccccc1)Cc1ccccc1 (stereo unspecified) | > 100 µM (inactive) | > 100 µM (inactive) | > 100 µM (inactive) | > 100 µM (inactive) | > 100 µM (inactive) | 59.6 µM (inactive) | > 100 µM (inactive) | > 100 µM (inactive) | > 100 µM (inactive)
16 | COc1ccc(/C=C2\C(=O)Nc3ccccc32)cc1OC |  |  | 37.7 µM (inactive) | > 100 µM (inactive) |  | > 100 µM (inactive) | 58.1 µM (inactive) | > 100 µM (inactive) | 64.7 µM (inactive)
17 | CC1=CCC23C(C1)OC(Br)(C=CC2(C)O)C3(C)C (stereo unspecified) |  | > 100 µM (inactive) | > 100 µM (inactive) | > 100 µM (inactive) | > 100 µM (inactive) | > 100 µM (inactive) |  |  | > 100 µM (inactive)
18 | N#Cc1c(-c2ccccc2)c(-c2ccccc2)cc2c(=O)c3ccc(Cl)cc3[nH]c12 |  | > 100 µM (inactive) |  | > 100 µM (inactive) | > 100 µM (inactive) | > 100 µM (inactive) | > 100 µM (inactive) | > 100 µM (inactive) | > 100 µM (inactive)
19 | O=C1[C@@H]2C(c3ccccc3Br)=NO[C@@H]2C(=O)N1c1ccc(Cc2ccc(N3C(=O)[C@H]4C(c5ccccc5Br)=NO[C@H]4C3=O)cc2)cc1 | > 100 µM (inactive) | > 100 µM (inactive) | > 100 µM (inactive) | 67.9 µM (inactive) | > 100 µM (inactive) | 45.6 µM (inactive) | > 100 µM (inactive) | > 100 µM (inactive) | > 100 µM (inactive)
20 | Cc1cc(O)nc(CNC(=O)c2ccc3ccccc3c2)n1 | > 100 µM (inactive) | > 100 µM (inactive) |  | > 100 µM (inactive) | > 100 µM (inactive) | > 100 µM (inactive) | > 100 µM (inactive) | > 100 µM (inactive) | > 100 µM (inactive)
21 | CCn1c(C)nc([N+](=O)[O-])c1Sc1ncc[nH]1 | 24.7 µM (inactive) | 30.5 µM (inactive) | 33.7 µM (inactive) | 43.2 µM (inactive) | 36.8 µM (inactive) | 4.8 µM (inactive) | 26.1 µM (inactive) |  | 57.1 µM (inactive)
22 | COC(=O)c1cc2c(=O)n(C)c3ccccc3n2c1C(=O)OC | > 100 µM (inactive) | 30.1 µM (inactive) | > 100 µM (inactive) | 20.4 µM (inactive) | > 100 µM (inactive) |  | > 100 µM (inactive) | 53.3 µM (inactive) | 51.6 µM (inactive)
23 | CC[C@H]1CC(=O)c2c(cc3c(c2O)C(=O)c2ccccc2C3=O)[C@@]1(C#N)C(=O)OC(C)(C)C |  | 2.33 µM (inactive) | 4.89 µM (inactive) | 2.74 µM (inactive) | 3.7 µM (inactive) | 3.52 µM (inactive) | 3.25 µM (inactive) | 4.08 µM (inactive) | 2.42 µM (inactive)
24 | CN(C)CCNC(=O)c1cc2ccccc2c2nc3ccccc3nc12 |  | 0.447 µM (active) | 3.55 µM (inactive) |  | 1.01 µM (active) | 5.82 µM (inactive) | 1.43 µM (inactive) | 0.946 µM (active) | 0.448 µM (active)
25 | COc1ccc2c(c1)O[C@@H]1c3ccc(OC)cc3OC[C@H]21 |  | 45.2 µM (inactive) | 33.8 µM (inactive) | 25.6 µM (inactive) | 31.4 µM (inactive) |  | 28.8 µM (inactive) |  | 14.1 µM (inactive)
26 | C=CCC12CCC(=O)[C@@]1(C)CC=C(O)C2=O (stereo partly specified) |  | > 100 µM (inactive) | > 100 µM (inactive) |  | > 100 µM (inactive) | > 100 µM (inactive) | > 100 µM (inactive) | > 100 µM (inactive) | > 100 µM (inactive)
27 | COC(=O)C1C=CCON2CCc3c(n(S(=O)(=O)c4ccccc4)c4ccccc34)C12 (stereo unspecified) |  | 10.7 µM (inactive) | > 100 µM (inactive) |  | 40.6 µM (inactive) | 64.6 µM (inactive) | 73.8 µM (inactive) | 42.1 µM (inactive) | 48.8 µM (inactive)
28 | CC(=O)OC1CC2CCN3C(=O)c4cc5c(cc4[C@H](C1OC(C)=O)C23)OCO5 (stereo partly specified) |  | > 100 µM (inactive) | > 100 µM (inactive) |  | > 100 µM (inactive) |  | > 100 µM (inactive) | > 100 µM (inactive) | > 100 µM (inactive)
